Where no end group is shown, it is not given here.

These results are taken from patent publication US6808877B2, “Ligands for FPR class receptors that induce a host immune response to a pathogen or inhibit HIV infection” (priority 2000, dated 2004).

Experiment [1] has as its target T1, FPRL1(LXA4R) (Homo sapiens, UniProt P25090).
T1 construct: host or cells: CHO cells
T1 sequence (P25090 1-351): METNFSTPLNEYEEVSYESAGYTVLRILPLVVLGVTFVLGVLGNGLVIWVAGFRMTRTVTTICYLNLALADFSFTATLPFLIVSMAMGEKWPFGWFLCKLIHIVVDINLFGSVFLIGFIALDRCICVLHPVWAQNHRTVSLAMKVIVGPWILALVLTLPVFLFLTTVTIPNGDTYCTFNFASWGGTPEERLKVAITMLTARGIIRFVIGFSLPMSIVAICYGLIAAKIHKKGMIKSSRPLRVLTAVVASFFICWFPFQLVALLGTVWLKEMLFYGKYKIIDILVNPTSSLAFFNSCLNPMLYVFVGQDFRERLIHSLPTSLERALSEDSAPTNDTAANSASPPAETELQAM
To be noted: CHO cells transfected with FPRL1(LXA4R); cited from earlier work.

Experiment [2] deals with T1, FPRL1(LXA4R). Particulars: CHO cells transfected with FPRL1(LXA4R); cited from earlier work. This is another data set of the same source.
The target of experiment [3] is T2, FPRL1 (Homo sapiens, UniProt P25090).
T2 construct: expressed in transfected cells; host or cells: HEK 293
T2 sequence (P25090 1-351): T1 sequence (P25090 1-351)
The experiment is described as follows: 3H-fMLP binding to FPRL1/293 cells. Here is the method:
The cells were then washed with ice-cold PBS (phosphate buffered saline) and filtered onto Whatman discs. The radioactivity associated with the cells was measured with a β counter.
The samples were incubated under constant rotation for 30 minutes at 37° C. After incubation, the samples were filtered onto Whatman GF/C discs (Whatman International Ltd., Kent, UK) on a 12-well manifold followed by extensive washing with ice-cold phosphate-buffered saline (PBS). The discs were air-dried at 65° C., submerged in liquid scintilation cocktail, and counted for β emision.

Experiment [4] deals with human neutrophils. To be noted: N-formylated or N-acetylated; cited from earlier work.

Regarding `CCCCC[C@H](O)/C=C/C=C\C=C\C=C\[C@@H](O)[C@@H](O)CCCC(=O)O` [LXA4, lipoxin A4], the “GTPase activity and release of esterified arachidonate” value in experiment [1] was “increased GTPase activity and the release of esterified arachidonate”. In addition, the binding affinity entry in experiment [2] is recorded as “high affinity”. As for `CSCC[C@H](NC=O)C(=O)N[C@@H](CC(C)C)C(=O)N[C@@H](Cc1ccccc1)C(=O)O` [^3H-fMLP], the binding to cells entry in experiment [3] is listed as “did not significantly bind”.

Turning to “Met-Ile-Leu-Phe-Phe-OH (MILFF-OH) [ID; No. 2]”, in experiment [4], the “potency in the induction of Ca2+ flux relative to fMLP” value is “more potent than parental fMLP”.
